Several values for one entry are separate records, joined by “and”; a condition that tells them apart may be missing. Identical values can stand only once. Like-named read-outs stand apart in the source and are kept apart here.
Columns and labels:
[1] = system: cryopreserved human primary hepatocytes; test: in vitro; conditions: human, hepatocytes
From the text: Briefly, cryopreserved human primary hepatocytes were thawed and cultured as described above.

[2] = Blood concentration and PK in infected NSG mice after single oral dose; type: in vivo, mouse; conditions: for concentration in blood: per mouse
Method: The effect of pantothenamides on P. falciparum Pf3D7^0087/N9 [66] in vivo was assessed in female NSG mice (NODscidIL2Rγ^null) at the Swiss Tropical and Public Health Institute (Basel, Switzerland) as described previously (Supplementary Table 30)[15],[67]. Briefly, humanized mice were engrafted daily with human erythrocyte suspensions from days -11 to day 6. After 11 days (day 0), mice were injected intravenously with 3×10^7 infected RBCs in a volume of 0.1 ml. On day 4, groups of n = 2 mice were treated with a single dose pantothenamides or chloroquine (50 mg/kg) by oral gavage. The hematocrit of all dosed mice and an untreated control group (n = 4 mice) was determined by fluorescence-activated cell sorting and parasitemia was analyzed by microscopy on >10,000 RBCs as described before. Samples to quantify compound metabolites were collected and prepared at different time points (1, 2, 4, 6, and 24 h after treatment) for each mouse by mixing 20 µl of whole blood with 20 µl of Milli-Q, followed by immediate freezing of samples on dry ice. […] Serial dilutions were prepared in the same solvent to concentrations 50 times higher than the corresponding CAL and QC concentrations. The concentrations were calculated under consideration of purity and salt factor. The spiking of the CAL and QC sample were performed at room temperature. The eight calibration levels were 5.00, 10.0, 50.0, 100, 500, 1000, 3750, and 5000 ng/mL and three QC levels 15.0, 100, and 3750 ng/mL were analyzed in duplicate, together with the study samples.
For the sample precipitation, to an aliquot of 10 µL mouse blood/water (1/1) study sample, 20 µL of acetonitrile containing the internal standard MMV1542001 at a concentration of 100 ng/mL was added. After vortex mixing, the samples were centrifuged for 10 min at 50,000 g at 8 °C. Subsequently, an aliquot of 20 µL of the supernatant was transferred to an autosampler vial and an aliquot of 5 µL was injected onto the LC-MS/MS system.
The samples were handled by an autosampler CTC PAL (CTC Analytics AG, Zwingen, Switzerland) set at 8 °C. The chromatography column used was a YMC Hydrosphere C18, 2.1 × 33 mm, 3 µm (YMC Co. Ltd., Kyoto, Japan), kept at room temperature. The aqueous mobile phase consisted of water containing 0.1 % formic acid, whereas the organic mobile phase consisted of acetonitrile containing 0.1 % formic acid, pumped by HPLC pump from Agilent 1200 series (Agilent Technologies Inc, Santa Clara, CA, USA). The HPLC gradient was as follows: 95% phase A, 5% phase B for 0.20 min, followed by transition to 5% phase A, 95% phase B in 1 min, 2 min at these concentrations, and a subsequent increase to 95% phase A, 5% phase B in 0.05 min which is kept for the remaining 0.75 min.
The detection of MMV693183 was performed using a TSQ Access mass spectrometer (Thermo Fisher Scientific, San Jose, CA, USA) by selected reaction monitoring. The ion source was heated electrospray ionization, using a negative polarity. Following parameters were used: Voltage 2500 [V], Vaporizer temperature 350 [°C], Sheath gas 60 [au], Auxiliary gas 5 [au], Capillary temperature 350 [°C] and Collision gas pressure 1.0 [mTorr]. […] The transition used for the internal standard was: parent ion 325.030 m/z—daughter ion 195.000 m/z.
The concentration of the analyte was calculated using the internal standardization method. The area ratio of analyte to internal standard against the concentration of calibration samples was used for quantification. The acquisition and processing of data were performed using LCquan 2.5.6 and Xcalibur 2.0.7. Microsoft Office Excel 2007 Prof was used for calculations and statistical evaluation of data. […] The Lower Limit of Quantification was 5.00 ng/mL in […], whereas The Upper Limit of Quantification was 5000 ng/mL in mouse blood/water (1/1).

[3] = system: P. falciparum T648M / T627A AcAS mutant gametocytes; type: cell-based, Plasmodium falciparum
Method: Gametocyte viability assays on NF54-HGL parasites were performed using an adapted high-throughput protocol as previously described[15],[64]. In short, asexual blood-stage parasite cultures were set up at 1% parasitemia in a semi-automated shaker system at 5% hematocrit. From day four until day eight or nine, parasites were treated with 50 mM N-acetyl glucosamine to eliminate all asexual blood-stage parasites. Subsequently, gametocytes were isolated by a Percoll density gradient centrifugation. At day 11, gametocytes were seeded (5,000 per well) in 30 µl in white 384-well plates containing 30 µl of compounds diluted in medium (0.1% DMSO). After a 72-h incubation, 30 µl of ONE-Glo reagent (Promega) was added according to manufacturer’s protocol and luminescence was quantified using the BioTek Synergy 2 Plate reader. Values were normalized to DMSO- and epoxomicin or dihydroartemisinin-treated controls.

In the case of CC(CNC(=O)C(O)C(C)(C)CO)NC(=O)CCc1ccccc1F (stereo in doubt) [MMV689258], the “Human hepatocyte CLint” value [1] is reported as 0.8 µl/min/10^6 cells, the AUC0-24h ([2]; 50 mg/kg p.o.) is reported as 6730 ng·h/mL and the Cmax ([2]; 50 mg/kg p.o.) is reported as 3780 ng/mL. The T1/2 ([2]; 50 mg/kg p.o.) was 3.26 h, the Tmax ([2]; 50 mg/kg p.o.) was 1.00 h and the concentration in blood ([2]; 1 h post treatment) was 3100 ng/mL and 4460 ng/mL. The concentration in blood ([2]; 2 h post treatment) was 1090 ng/mL and 698 ng/mL, the concentration in blood ([2]; 4 h post treatment) was 368 ng/mL and 236 ng/mL and the concentration in blood ([2]; 6 h post treatment) was 91.8 ng/mL and 110 ng/mL. For the same molecule, the concentration in blood ([2]; 24 h post treatment) was 10 ng/mL, the “gametocyte viability, dose-response” value ([3]; cT627A, Log concentration (M) -6) was 54.65 and 65.95 and 38.25 and the “gametocyte viability, dose-response” value ([3]; cT627A, Log concentration (M) -6.5) was 66.35 and 84.15 and 69.3. The “gametocyte viability, dose-response” value ([3]; cT627A, Log concentration (M) -7) was 85 and 95.75 and 66.7, the “gametocyte viability, dose-response” value ([3]; cT627A, Log concentration (M) -7.5) was 95.85 and 91.8 and 94.3 and the “gametocyte viability, dose-response” value ([3]; cT627A, Log concentration (M) -8) was 92.9 and 96.45 and 100.2. The “gametocyte viability, dose-response” value ([3]; cT627A, Log concentration (M) -8.5) was 84.65 and 95.2 and 101.25, the “gametocyte viability, dose-response” value ([3]; cT627A, Log concentration (M) -9) was 97.55 and 97.85 and 111.3 and the “gametocyte viability, dose-response” value ([3]; cT627A, Log concentration (M) -9.5) was 87.2 and 101.95 and 102.75. For the same molecule, the “gametocyte viability, dose-response” value ([3]; cT627A, Log concentration (M) -10) was 85.8 and 97.9 and 99.85, the “gametocyte viability, dose-response” value ([3]; cT648M, Log concentration (M) -6) was 103.9 and 89.5 and 90.75 and the “gametocyte viability, dose-response” value ([3]; cT648M, Log concentration (M) -6.5) was 103.05 and 97.85 and 100.35. The “gametocyte viability, dose-response” value ([3]; cT648M, Log concentration (M) -7) was 99.3 and 92.85 and 107.7, the “gametocyte viability, dose-response” value ([3]; cT648M, Log concentration (M) -7.5) was 98.25 and 95.25 and 103.7 and the “gametocyte viability, dose-response” value ([3]; cT648M, Log concentration (M) -8) was 84.9 and 96.6 and 106.6. For the same molecule, the “gametocyte viability, dose-response” value ([3]; cT648M, Log concentration (M) -8.5) was 104.05 and 98.15 and 101, the “gametocyte viability, dose-response” value ([3]; cT648M, Log concentration (M) -9) was 97.2 and 88.65 and 97.7 and the “gametocyte viability, dose-response” value ([3]; cT648M, Log concentration (M) -9.5) was 106.45 and 88.2 and 104.1. For the same molecule, the “gametocyte viability, dose-response” value ([3]; cT648M, Log concentration (M) -10) was 102.75 and 101.9 and 108.55, the “gametocyte viability, dose-response” value ([3]; dT648M, Log concentration (M) -6) was 104.25 and the “gametocyte viability, dose-response” value ([3]; dT648M, Log concentration (M) -6.5) was 95.5. The “gametocyte viability, dose-response” value ([3]; dT648M, Log concentration (M) -7) was 100.05, the “gametocyte viability, dose-response” value ([3]; dT648M, Log concentration (M) -7.5) was 101.95 and the “gametocyte viability, dose-response” value ([3]; dT648M, Log concentration (M) -8) was 95.3. For the same molecule, the “gametocyte viability, dose-response” value ([3]; dT648M, Log concentration (M) -8.5) was 102.85, the “gametocyte viability, dose-response” value ([3]; dT648M, Log concentration (M) -9) was 93.8 and the “gametocyte viability, dose-response” value ([3]; dT648M, Log concentration (M) -9.5) was 107.4. The “gametocyte viability, dose-response” value ([3]; dT648M, Log concentration (M) -10) was 95.7.
